Measured values published in US11377473B2, “Albumin-binding prodrugs of auristatin E derivatives” (priority 2017, dated 2022).

What was measured:
[1] = Reconstitution stability (maleimide hydrolysis, loss of API) in reconstitution buffer; assay type: physicochemical; details: for stability of the reconstituted drug (maleimide hydrolysis and loss of API): 50 mM sodium phosphate buffer pH 7.6, 5% sucrose, 2-HPβCD, room temperature, 240 minutes; for maleimide hydrolyzed: after 4 hours incubation at room temperature in reconstitution buffer (50 mM sodium phosphate pH 7.65 containing 4% HPβCD and 5% sucrose)
Protocol: (§1) The albumin-binding AE-Keto drug derivatives were reconstituted in 50 mM sodium phosphate buffer pH 7.6 which contained 5% sucrose (w/v) and 2% 2-hydroxypropyl-β-cyclodextrin (2-HPβCD). Both drugs were reconstituted at a concentration of 1277 μM (equal to 4.5 mg/kg murine xenograft dose), the dissolution of both drugs was confirmed by HPLC (method 2, 254 nm). Stability of the reconstituted drugs was monitored by HPLC at room temperature every 15 minutes over a period of 240 minutes for maleimide hydrolysis and loss of API.
as §1, with “AE-Ester” for “AE-Keto drug”, “4% 2-HPβCD.” for “2% 2-hydroxypropyl-β-cyclodextrin (2-HPβCD).”, “655” for “1277”, “2.4” for “4.5”, “310” for “254”

[2] = Accelerated degradation of lyophilized auristatin formulations; assay type: physicochemical; details: 55° C. for up to 264 hours
Protocol: The APIs were dissolved in the lyophilization buffer which contained 2-HPβCD, 10 mM sodium citrate pH 6.2, 50% tert-butyl alcohol (V/V)). For the AE-Keto derivatives 2% (w/v) 2-HPβCD was employed to dissolve the AE-Keto APIs at 1.27 mM concentration; for the AE-Ester derivatives 4% (w/v) 2-HPβCD was used to dissolve the APIs at 1.05 mM concentration. The dissolved APIs were sterile filtered using an Acrodisc Fluorodyne II syringe filter (0.2 μm). The sterile solutions were pipetted into lyophilization vials which were then partially sealed using a rubber stopper. The vials were subsequently placed into the freeze dryer for lyophilization. The vials were frozen on the freeze dryer shelf at −40° C. for 2 hours, after 2 hours main drying was started. Main drying was run for 26 hours, parameters: shelf temperature −20° C., vacuum 0.0048 mbar. After main drying, final drying was initiated. Final drying was run for 16 hours, parameters: shelf temperature 20° C., vacuum 0.0047 mbar. […]
The sealed vials were incubated at 55° C. using an Eppendorf Thermomixer C with a plate insert (Smartblock) and lid. […] Stability of the APIs was determined by HPLC (method 8, 254 nm for AE-Keto derivatives, 310 nm for AE-Ester derivatives). The percentage of maleimide hydrolysis at each time point was determined by comparison to the AUC for each API at time 0.

albumin in murine plasma = molecular target: T1, albumin in murine plasma (Mus musculus, UniProt P07724); test: Binding kinetics to albumin in murine plasma; assay type: in vitro ADME, CD1 murine; details: 37° C.
T1 construct: CD1 murine plasma and Sprague Dawley rat plasma were removed from −80° C. storage; from tissue; host or cells: CD1 murine plasma (frozen, thawed, filtered)
Protocol: CD1 murine plasma and Sprague Dawley rat plasma were removed from −80° C. storage and allowed to reach room temperature. The thawed plasma was spun down at 13.6 kRPM for 60 seconds, the supernatant was filtered through a filter needle (5 μm) and subsequently through a 0.45 μm CA membrane.
All binding experiments were carried out in triplicate. The plasma was incubated at 37° C. using an Eppendorf Thermomixer C. After 30 minutes incubation 40 μL of the appropriate albumin-binding auristatin-Sulf07 derivative was dissolved in its reconstitution solution and added to the plasma. Samples (40 μL) were taken after 15 seconds, 2 minutes, 4 minutes, 8 minutes and 15 minutes (5 samples).
The samples were immediately added to 160 μL of acetonitrile (containing 4 μg/mL of 'MMAE as an internal standard) and vortexed for 1 minute.
The solutions were pipetted into an Impact plasma precipitation plate (shaken for 60 seconds) and filtered by vacuum onto a 96 well plate. Remaining drug was determined by LCMS quantification (method 5, 30 μL injection) using MRM MS2 negative mode (multiple reaction monitoring). Parent ions: auristatin F (Mass-744.8), AE-Keto-Sulf07 (Mass-1135.1) and AE-Ester-Sulf07 (Mass-1283.2). Percentage of binding was determined by comparing the AUC for AE-Keto-Sulf07 and AE-Ester-Sulf07 to calibration curves generated by LCMS for each compound.

[3] = system: renal cell cancer model RXF631; test: Human renal cell cancer model RXF631, small tumors; assay type: in vivo, NMRI nude mice
Excerpt: Mice were kept under a 14-hour light/10-hour dark, artificial light cycle. The animals were fed with autoclaved Teklad Global 19% Protein Extruded Diet (T.2019S.12) from Envigo RMS SARL and had access to sterile filtered and acidified (pH 2.5) tap water which was changed twice weekly. Feed and water were provided ad libitum. […] Animals were routinely monitored twice daily on working days and daily on Saturdays and Sundays. Starting on day 0, animals were weighed twice a week. Relative body weights (RBW) of individual animals were calculated by dividing the individual absolute body weight on day X (BWx) by the individual body weight on the day of randomization multiplied by 100%. […] Tumor volumes were calculated according to the following equation: […]
Statistical analysis was only carried out if at least 50% of the initially randomized animals in a relevant group were still alive. Comparisons between test groups were carried out for the same days. By convention, p-values ≤0.05 indicate significance of tumor inhibition. Statistical calculations were performed using GraphPad Prism bioanalytic software (San Diego Calif. USA, www.graphpad.com).
The initial evaluation of auristatin E and the albumin-binding auristatin E derivative AE-Ester-Sulf07 in a human renal cell cancer model RXF631 was carried out as described in the general procedure for a patient-derived xenograft model.

[4] = system: malignant melanoma cancer model A375; test: Human malignant melanoma cancer model A375, small tumors; assay type: in vivo, NMRI nude mice
Protocol: Feed and water were provided ad libitum. […] Identification used: ear mark and cage labels. […] Tumor volumes were calculated according to the following equation: […]
The evaluation of auristatin E and the albumin-binding auristatin E derivative AE-Keto-Sulf07 in a human malignant melanoma cancer model A375 was carried out as described in the general procedure for cell-line-derived xenograft models.
Stock solutions were prepared as follows: • 1) 7 mice, 29 g average weight, 135 mm^3 average median tumor volume on day of randomization: 0.3 mg/kg auristatin E TFA salt (AE equiv.) dosed twice weekly for 3 weeks on day 0, 6, 9, 13, 16, 19≡0.35 mg/kg≡7.1 μg/20 g mouse.

[5] = 3.0 mg/kg six times twice weekly

T1 sequence (P07724 25-608): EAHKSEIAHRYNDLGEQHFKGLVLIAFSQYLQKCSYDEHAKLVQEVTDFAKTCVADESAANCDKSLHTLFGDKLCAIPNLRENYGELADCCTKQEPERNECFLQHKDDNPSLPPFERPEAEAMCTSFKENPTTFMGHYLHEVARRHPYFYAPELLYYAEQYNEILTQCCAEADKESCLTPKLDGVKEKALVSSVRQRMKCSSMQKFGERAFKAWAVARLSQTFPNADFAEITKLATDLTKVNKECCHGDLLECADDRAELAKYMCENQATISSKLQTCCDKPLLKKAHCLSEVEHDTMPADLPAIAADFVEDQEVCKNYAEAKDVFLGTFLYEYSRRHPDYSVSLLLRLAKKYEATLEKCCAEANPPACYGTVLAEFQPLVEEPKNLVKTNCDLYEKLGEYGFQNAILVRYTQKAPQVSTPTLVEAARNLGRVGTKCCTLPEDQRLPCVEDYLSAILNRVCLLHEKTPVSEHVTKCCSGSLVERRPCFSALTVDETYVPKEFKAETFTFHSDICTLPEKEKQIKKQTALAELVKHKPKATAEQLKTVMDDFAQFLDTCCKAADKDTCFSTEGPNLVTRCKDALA

Compound | stability of the reconstituted drug (maleimide hydrolysis and loss of API) [1] | maleimide hydrolyzed [1] [%] | stability under accelerated degradation conditions (maleimide hydrolysis) [2] | albumin binding in plasma (albumin in murine plasma) | minimum tumor volume ([3]; 2.2 mg/kg (3.0 mg/kg on day 15 and 19) twice weekly) [mm^3] | tumor response ([3]; 2.2 mg/kg (3.0 mg/kg on day 15 and 19) twice weekly, day 24 to day 53) | p, antitumor efficacy versus auristatin E ([3]; 2.2 mg/kg (3.0 mg/kg on injection day 15 and 19) versus auristatin E 0.3 mg/kg, twice weekly) | side effects ([3]; 2.2-3.0 mg/kg twice weekly) | animals lost ([3]; 2.2-3.0 mg/kg, on day 20, 43 and 66) | transient body weight loss ([3]; 2.2-3.0 mg/kg, reached on day 31) [%] | body weight [4, 5] | side effects [4, 5] | tumor response ([4]; 3.0 mg/kg six times twice weekly, day 19 until end of study on day 37) | p, antitumor efficacy versus auristatin E ([4]; 3.0 mg/kg versus auristatin E 0.3 mg/kg, six injections twice weekly, day 27 to day 37) | final tumor volume ([4]; 3.0 mg/kg, day 37) [mm^3] | tumor response ([4]; 0.3 mg/kg six times twice weekly, until day 21) | tumor response ([3]; 0.3 mg/kg twice weekly, up to day ˜40)
2-(2-(1-(4-(((1S,2R)-2-((2R,3R)-3-((S)-1-((3R,4R,5S)-4-((S)-2-((R)-2-(dimethylamino)-3-methylbutanamido)-N,3-dimethylbutanamido)-3-methoxy-5-methylheptanoyl)pyrrolidin-2-yl)-3-methoxy-2-methylpropanamido)-1-phenylpropoxy)carbonyl)phenyl)ethylidene)hydrazine-1-carbonyl)-5-(6-(2,5-dioxo-2,5-dihydro-1H-pyrrol-1-yl)hexanamido)benzenesulfonic acid [AE-Ester-Sulf07] | more stable than AE-Ester-EMCH | 2.5 | more stable than the respective EMCH derivatives | very rapid | 1 | complete remission (complete remission <10%) | < 0.05 | Wounds due to biting and scratching were also observed starting from day 17 | Two mice died, and one had to be sacrificed for general bad conditions | 9 | – | – | – | – | – | – | –
CC[C@H](C)[C@@H]([C@@H](CC(=O)N1CCC[C@H]1[C@H](OC)[C@@H](C)C(=O)N[C@H](C)C(=NNC(=O)c1ccc(NC(=O)CCCCCN2C(=O)C=CC2=O)cc1S(=O)(=O)O)c1ccccc1)OC)N(C)C(=O)[C@@H](NC(=O)[C@H](C(C)C)N(C)C)C(C)C [AE-Keto-Sulf07, 2-(2-((R)-2-((2R,3R)-3-((S)-1-((3R,4S,5S)-4-((S)-2-((S)-2-(dimethylamino)-3-methylbutanamido)-N,3-dimethylbutanamido)-3-methoxy-5-methylheptanoyl)pyrrolidin-2-yl)-3-methoxy-2-methylpropanamido)-1-phenylpropylidene)hydrazine-1-carbonyl)-5-(6-(2,5-dioxo-2,5-dihydro-1H-pyrrol-1-yl)hexanamido)benzenesulfonic acid] | more stable than AE-Keto-EMCH | 2.2 | more stable than the respective EMCH derivatives | very rapid | – | – | – | – | – | – | only a slight reduction in body weight growth compared to the control | no detectable side effects | complete remission (complete remission <10%) | < 0.01 | 1 | – | –
CC[C@H](C)[C@@H]([C@@H](CC(=O)N1CCC[C@H]1[C@H](OC)[C@@H](C)C(=O)N[C@H](C)[C@@H](O)c1ccccc1)OC)N(C)C(=O)[C@@H](NC(=O)[C@H](C(C)C)N(C)C)C(C)C [auristatin E] | – | – | – | – | – | – | – | – | – | – | – | – | – | – | – | stable disease (stable disease >75-125%) | stable disease (stable disease >75-125%)
